Reference: EP0873137B1, “COMPOSITIONS INCLUDING CALCIUM INFLUX BLOCKERS FOR INHIBITING CELL GROWTH” (The Wellesley Hospital Foundation, priority 1996, dated 1997)

Experiments:
[1] = tested on: Bone marrow derived mast cells (BMMC); experiment: Cell death assay (Trypan blue exclusion) in BMMC; format: cell-based; conditions: for cell death: 24 hours
Description: Cytotoxicity assays were performed as described in Materials and Methods. In Figures 1A to 1C, BMMCs were incubated with either SLF (500ng/ml in all cases) (circles) or IL-3 (25% WEHI-3 conditioned medium in all cases) (squares) with the indicated amounts of ketotifen (Figure 1A), econazole (Figure 1B) or Ni^2+ (Figure 1C). In Figure 1D, BMMCs were incubated with IL-3, and the indicated amounts of SLF. Plotted circles also included 2.5mM Ni^2+ and plotted squares included no Ni^2+. In Figure 1E, BMMCs were coated with IgE anti-DNP monoclonal SPE-7, then incubated with IL-3 plus the indicated amounts of DNP-HSA (Ag), with 5µM econazole (circles) or without econazole (squares). In Figure 1F, BMMCs were incubated with IL-3 plus the indicated amounts of Substance P, with 5µM econazole (circles) or without econazole (squares). In all cases, the proportion of dead cells was determined after 24 hours in culture by counting cells that could or could not exclude Trypan blue. Error bars represent the standard error determined from triplicate measurements.
(§1) Cells. Bone marrow derived mast cells (BMMC) were generated as described previously (Berger et al., 1994). They were cultured in OPTI-MEM (Gibco, Burlington, ON) supplemented with 10% heat-inactivated FBS and 2% WEHI-3 supernatant as a source of IL-3. 32D-kit cells (gift from Dr. Mark Minden, Ontario Cancer Institute) are an IL-3-dependent myelomonocytic cell line expressing c-kit (Hu et al., 1995). 32D-kit cells were grown in RPMI (Gibco) supplemented with 10% heat-inactivated FBS, 2% WEHI-3 supematant, and 1 mg/ml G418 (Gibco). The p815 cell line is a murine mastocytoma cell line. P815 cells were grown in RPMI supplemented with 10% heat-inactivated FBS. Bcl-2 gp+e NIH 3T3 packaging cells were grown in Dulbecco's modified Eagle's medium (DMEM - Gibco) and supplemented with 10% FBS and 2 µg/ml puromycin (Sigma, St. Louis, Mo). All cell cultures also contained 55µM β-mercaptoethanol and antibiotics (both Sigma). SK-BR3, MDA-MB231 and MCF-7 cells were obtained from ATCC. SK-BR3 and MDA-MB231 cells were cultured in RPMI medium supplemented with 10% heat inactivated fetal bovine serum. MCF-7 cells were cultured in DMEM medium supplemented with 10% heat inactivated fetal bovine serum and 10 µg/ml human insulin (Sigma).
(§2) Cell death assays. 2.5 X 10^4 BMMCs, 32D-kit or P815 cells were placed in 96-well flat bottom plates in a volume of 0.1 ml RPMI containing 0.5% FBS. Cells were supplemented with either SLF, Substance P or IL3 plus Ca^2+ channel blocker. In the case of adding IgE, cells were incubated with 10 µg/ml SPE-7 for 45 minutes at 4°C followed by 3 washes with RPMI, 0.5% FBS before plating in 96 well plates and adding 100 ng/ml DNP-HSA. The proportion of dead cells was determined after 18 or 24 hours in culture by counting cells that could or could not exclude Trypan blue.

32D-kit leukemia cells = experiment: 32D-kit leukemia in mice, SLF intravenously: G418-resistant spleen colonies in agar; format: in vivo
Description: Mice were inoculated intravenously with 1 X 10^7 G418-resistant 32D-kit cells. Between 3 and 5 weeks following the inoculation (Experiments 1 & 3; 5 weeks, experiment 2; 3 weeks), mice were given 100mg/kg ketotifen by oral gavage. Four hours following the ketotifen treatment, mice were injected with 15µg SLF intravenously. Two hours later the mice were given a further 100mg/kg ketotifen p.o. The following day, spleens were removed and assayed for the presence of leukemic cells by plating cells in 0.3% agar in growth medium containing 20% WEHI-3 conditioned medium and 1 mg/ml G418 to limit detection to the G418-resistant leukemic cells. Seven days later, colonies were enumerated.
(§3) Mice. For the in vivo 32D-kit experiments, mice were male C3H/ he mice 6 to 8 weeks old and obtained from Charles River Laboratories, Boston, Massachusetts. Mice were inoculated intravenously with 1 x 10^7 leukemic cells. Between 3 and 5 weeks following the inoculation, mice were given 100 mg/kg ketotifen (Sigma) in a volume of 0.4 ml water by oral gavage, Following the first ketotifen treatment, mice were injected intravenously or subcutaneously with 15 µg SLF in PBS. A second ketotifen treatment followed administration of SLF.
In order to determine the efficacy of the combination of a Ca^2+ influx blocker with an activating signal in vivo, mice inoculated with factor-dependent and G418-resistant 32D-kit leukemia cells were treated with a combination of ketotifen and SLF. In one set of experiments, spleen cells were removed and assayed for the presence of leukemic cells by plating cells in agar in growth medium containing 20% WEHI-3 conditioned medium and 1mg/ml G418 to limit detection to the G418-resistant leukemic cells. […] The number of G418-resistant colonies detected in animals that were injected with SLF only tended to be higher than those not receiving the factor, varying between 65 and 31,000 with an arithmetic average of 7,399, and a geometric mean of 1,545 colonies/spleen. […]

[2] = tested on: all cells capable of forming colonies in agar in response to IL-3; experiment: 32D-kit leukemia in mice, SLF intravenously: all IL-3-dependent spleen colonies in agar; format: in vivo; conditions: ketotifen 100mg/kg p.o. twice, SLF 15µg intravenously; leukemic as well as normal cells
Description: Figure 11B is similar to Figure 11A, but in this case spleen cells were assayed for the presence of all cells capable of forming colonies in agar in response to IL-3, to include leukemic as well as normal cells.
as §3
In order to determine the efficacy of the combination of a Ca^2+ influx blocker with an activating signal in vivo, mice inoculated with factor-dependent and G418-resistant 32D-kit leukemia cells were treated with a combination of ketotifen and SLF. […] The number of G418-resistant colonies detected in animals that were injected with SLF only tended to be higher than those not receiving the factor, varying between 65 and 31,000 with an arithmetic average of 7,399, and a geometric mean of 1,545 colonies/spleen. […]

32D-kit-Bcl-2 cells = experiment: Cell death assay (Trypan blue exclusion) in Bcl-2 over-expressing 32D-kit cells; format: cell-based; conditions: SLF plus 2.5, 5 or 10µM econazole; 18 hours; Figure 7B
Description: Figures 6A and 6B show the effect of ionomycin on apoptosis induced by SLF and Ca^2+ influx blacker. In Figure 6A, 32D-kit cells were incubated for 18 hours with 5µM econazole and the indicated amounts of ionomycin in the presence of either SLF (circles) or IL-3 (squares). In Figure 6B, 32D-kit-Bcl-2 cells were incubated for 18 hours with 5µM econazole and the indicated amounts of ionomycin in the presence of either SLF (circles) or IL-3 (squares). The proportion of dead cells was determined by Trypan Blue exclusion.
In additional cultures, IL-3 alone or no factor was added and cell viability was similarly tested. The effect on cell viability of adding 25 or 250 µM YVAD-CHO was also evaluated in separate cultures in which no additional factors were added.
Generation of Bcl-2 over-expressing 32D-kit cells. gp + e bcl-2 retroviral producer cells were a gift from Dr. Y. Ben-David (Toronto) and contain an LXSN-based retroviral vector expressing genes for both puromycin resistance and murine bcl-2. For infection, a confluent layer of gp + e packaging cells were co-cultured with 32D-kit cells for 24 hours. Non-adherent 32D-kit cells were then removed, cultured for 48 hours and then selected for bcl-2 over-expressing cells in the presence of 2µg/ml puromycin.
as §2

BMMC = experiment: Analysis of DNA content (propidium iodide, flow cytometry) in BMMC; format: cell-based; conditions: 24 hours
Description: Analysis of DNA content. 1.25 X 10^6 cells were incubated for 18 or 24 hours as described above. Cells were spun down and resuspended in Vindelov's reagent: 3.4mM Tris - pH 8, 75 µM Propidium Iodide (from Sigma), 0.1% NP-40, 700 u/l RNAse (Sigma) and 10 mM NaCl. Cells were then analysed by flow cytometry.

SK-BR3 cells = experiment: Cell death (Trypan blue exclusion) in SK-BR3 breast cancer cells; format: cell-based, human; conditions: with or without 10ng/ml EGF; 18 hours; Figure 9A
Description: as §1

MDA-MB-231 cells = experiment: Cell death in autocrine stimulated MDA-MB-231 breast cancer cells; format: cell-based, human; conditions: 20µM econazole; Figure 9B
Description: Bar 1: control; Bar 2: 20µM econazole; Bar 3: 20µM econazole and 10µM YVAD-CHO (ICE inhibitor); Bar 4: 20µM econazole and 100 µM YVAD-CHO; Bar 5: 20µM econazole and 0.1 nM ionomycin (calcium ionophore); Bar 6: 20µM econazole and 10 nM ionomycin; Bar 7: 20µM econazole and 1 µM ionomycin; Bar 8: 20µM econazole and 10 µM oleic acid (PLC activation inhibitor); and Bar 9: 20µM econazole and 100 µM oleic acid.
as §1
The MDA-MB-231 cell line is a highly anaplastic carcinoma of the breast. it too is tumorigenic in nude mice but expresses only low levels of erbB2. However it is FGF^R positive and is stimulated in an autocrine fashion by bFGF (el Yazidi et al., 1995). Experiments were carried out to determine the susceptibility of MDA-MB-231 cells to a Ca^2+ influx blocker and the influence of oleic acid, ionomycin, and YVAD-CHO on induction of cell death by the blocker. The results are summarized together in Figure 9B.

MCF-7 cells = experiment: Cell death (Trypan blue exclusion) in MCF-7 cells; format: cell-based, human; conditions: with versus without 10ng/ml EGF; 18 hours; Figure 10
Description: 2.5 X 10^4 MCF-7 cells were incubated in the wells of a 96-well plate in 0.1ml DMEM plus 0.5% FBS with (circles) or without (squares) 10ng/ml EGF and with the concentrations of econazole indicated for 18 hours. The proportion of dead cells was evaluated by Trypan Blue exclusion after 18 hours in culture.
as §1, with “MCF-7 cells were cultured in DMEM medium supplemented with 10% heat inactivated fetal bovine serum and 10 µg/ml human insulin (Sigma).” left out

NS1/Ag4 myeloma cells = conditions: at 1µg/ml; cited from earlier work
[3] = co-incubated with SLF (500ng/ml), Figures 1A-C
[4] = stimulated with IgE plus antigen (DNP-HSA), with IL-3, 5µM econazole in Figure 1E
[5] = ketotifen 100mg/kg p.o. twice, SLF 15µg intravenously, spleens next day

CN1CCC(=C2c3ccccc3CC(=O)c3sccc32)CC1 [ketotifen]
cell death [1, 3]: converted to a death signal | cell death [1, 4]: combine with IgE receptor cross-linking to induce cell death | activity on the leukemic cells in vivo (32D-kit leukemia cells; SLF intravenously): little activity | G418-resistant colonies, arithmetic average (32D-kit leukemia cells; [5]): 5,502 colonies/spleen | G418-resistant colonies, geometric mean (32D-kit leukemia cells; [5]): 849 colonies/spleen | IL-3-dependent colonies, arithmetic average [2]: 7,715 colonies/spleen | IL-3-dependent colonies, geometric mean [2]: 2,320 colonies/spleen

Clc1ccc(COC(Cn2ccnc2)c2ccc(Cl)cc2Cl)cc1 (stereo not drawn) [econazole]
cell death [1, 3]: converted to a death signal | cell viability ([1]; econazole alone, without antigenic stimulation): no effect on cell viability | cell death [1, 4]: cell death is induced | cell death ([1]; stimulated with Substance P, IL-3, 5µM econazole): cell death is also induced | protection by Bcl-2 overexpression from induction of apoptosis (32D-kit-Bcl-2 cells): fails to protect | Sub G1 Content (%) 8µM econazole (BMMC; 8µM econazole plus IL-3 (25% WEHI conditioned media)): 20.4% | Sub G1 Content (%) 8µM econazole (BMMC; 8µM econazole plus SLF (500ng/m.)): 66.8% | cell death (SK-BR3 cells): equivalent levels of death | apoptosis (MDA-MB-231 cells): undergo apoptosis | sensitivity to cell death (MCF-7 cells): more sensitive | cell viability and cell numbers (NS1/Ag4 myeloma cells): reduce cell viability and cell numbers
